The text below walks through data of PMC6262408, “Recovery of the Peptidoglycan Turnover Product Released by the Autolysin Atl in Staphylococcus aureus Involves the Phosphotransferase System Transporter MurP and the Novel 6-phospho-N-acetylmuramidase MupG” (Frontiers in Microbiology, 2018).

In this experiment the target is T1, MupG (Staphylococcus aureus, UniProt A0A0H2XHV5).
T1 sequence (A0A0H2XHV5 1-351): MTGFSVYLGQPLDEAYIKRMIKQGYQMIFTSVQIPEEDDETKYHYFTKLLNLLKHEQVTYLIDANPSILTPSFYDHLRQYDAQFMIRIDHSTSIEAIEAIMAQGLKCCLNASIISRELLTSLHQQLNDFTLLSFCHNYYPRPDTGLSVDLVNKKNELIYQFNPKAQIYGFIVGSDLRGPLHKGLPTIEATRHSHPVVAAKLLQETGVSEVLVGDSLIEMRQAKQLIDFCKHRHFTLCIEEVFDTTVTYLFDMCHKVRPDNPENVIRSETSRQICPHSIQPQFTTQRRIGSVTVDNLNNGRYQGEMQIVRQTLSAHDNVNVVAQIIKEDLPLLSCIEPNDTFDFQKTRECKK
Kind of experiment: LC-MS of hydrolysis by recombinant enzyme. Type of experiment: biochemical. To be noted: substrate in acetone extract of ΔmupG cytosol; 1 μg enzyme, 2.5 h, 37 °C; products MurNAc 6P and GlcNAc.

Turning to `CC(=O)N[C@H]1[C@H](O[C@H]2[C@H](O)[C@@H](NC(C)=O)C(O)O[C@@H]2CO)O[C@H](COP(=O)(O)O)[C@@H](O)[C@@H]1O[C@H](C)C(=O)O` (stereo partly shown) [MurNAc 6P-GlcNAc], the “LC-MS of hydrolysis by recombinant enzyme” value is “recombinantly produced MupG cleaved MurNAc 6P-GlcNAc, releasing MurNAc 6P and GlcNAc”.
